By pIC50 is commonly meant the IC50 on a negative log10 scale, so that one unit is a factor of ten.

The source of these data is US20120077795A1, “BIS-PYRIDYLPYRIDONES AS MELANIN-CONCENTRATING HORMONE RECEPTOR 1 ANTAGONISTS” (GLAXSMITHKLINE LLC, priority 2009, published 2012).

pIC50: −log10 of the molar value.

This assay has as its target T1, hMCHR1 (Homo sapiens, UniProt Q99705).
T1 construct: expressed in transfected cells; host or cells: HEK293
The assay is described as follows: MCHR1 pIC50 determination FLIPR assay (calcium response to MCH challenge). It counts as cell-based. The note with it: HEK293 cells stably transfected with hMCHR1; MCH challenge at 4XEC50. On the procedure:
MCHR^1 pIC50 Determination FLIPR™ Assay: HEK293 cells stably transfected with hMCHR1 were propagated as adherent cultures at 37° C. in a humidified incubator. Cells were split 1:8 at 90% confluency two times per week. New cell stocks were recovered from storage every two months. Cells were plated in black 384-well plates (Greiner) 24 hours prior to assay at 15,000 cells/well in 50 μL DMEM/F12, 10% FBS, 2 mM I-glutamine. Compounds to be profiled were prepared by making a stock solution at 3×10^−3M in 100% DMSO. The stock solutions were serially diluted 1:4 in 100% DMSO using JANUS (PerkinElmer) liquid handling instrument to allow for an 11 point curve in singlicate. At the time of the assay, the media was removed from the cell plate by aspiration, followed by the addition of 20 μL of loading buffer (Calcium 4 Kit, […]). Following 50 min incubation at 37° C., 10 μL of compound was added to the plates via the FLIPR™ instrument ([…]). The plates were incubated at room temperature for 15 minutes along with an MCH peptide agonist challenge plate. […] The amount of luciferase generated was quantified in a TopCount (PerkinElmer Packard) at 19.8° C. in SPC (single photon counting) mode with a 5 second count/well and subjected to a nonlinear regression analysis curve fitting program to generate pIC50s.

T1 sequence (Q99705 whole entry): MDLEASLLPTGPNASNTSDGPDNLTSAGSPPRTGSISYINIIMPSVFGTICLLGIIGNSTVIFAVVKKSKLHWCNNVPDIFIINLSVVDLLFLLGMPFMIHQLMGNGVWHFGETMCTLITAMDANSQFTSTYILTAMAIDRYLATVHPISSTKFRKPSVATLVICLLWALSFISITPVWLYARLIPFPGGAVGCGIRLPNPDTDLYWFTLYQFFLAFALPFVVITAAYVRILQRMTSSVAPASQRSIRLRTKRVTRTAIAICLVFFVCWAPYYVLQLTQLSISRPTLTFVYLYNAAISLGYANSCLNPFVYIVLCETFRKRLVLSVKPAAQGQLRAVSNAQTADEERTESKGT

As to `CNC1C2CN(c3ccc(-n4ccc(OCc5ccc(Cl)cn5)cc4=O)cn3)CC21` (centres unmarked) [Example 14], the pIC50 is 7.35.
As for `O=c1cc(OCc2ccc(Cl)cn2)ccn1-c1ccc(N2CC3CONC3C2)nc1` (centres unmarked) [Example 16], the figure is 7.25.
